Eleven compounds from patent US11691949B2, “Quinoline sulfonamide compounds and their use as antibacterial agents” (OTAGO INNOVATION LIMITED, priority 2017, dated 2023) can be followed below.

Type in all cases: cell-based
The subject of one assay is E. coli ATCC 10596. Briefly: MIC by broth microdilution, E. coli. The conditions noted are these: Escherichia coli, read-out: E. coli ATCC 10536 MIC. The method, boiled down:
(§1)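 Media: TSB or CAMHB for S. aureus, LB or CAMHB for E. coli, with zinc sulphate to 50 μM final where required. Cells at ~5×10^5 cfu/mL met two-fold compound series; growth was scored by OD600 after 24 h shaking at 37° C.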
On the technique in general: Dilution methods test growth across graded concentrations, often in twofold steps.

In another assay the test system is S. aureus ATCC 6538. Briefly: MIC by broth microdilution, S. aureus. The conditions noted are these: Staphylococcus aureus, read-out: S. aureus ATCC 6538 MIC. The method, boiled down: as §1
For the next assay, the system named is S. uberis ATCC 19436. Briefly: MIC by broth microdilution, S. uberis. The conditions noted are these: Streptococcus uberis, read-out: S. uberis ATCC 19436 MIC. The gist of the method: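 This broth microdilution assay used S. uberis ATCC 19436 in Todd Hewitt Broth, with zinc sulphate heptahydrate added where required to a final 50 μM. Inhibitor concentration ranges came from two-fold serial dilutions in 96-well flat bottom plates at 200 μl. Approximately 5×10^5 cfu/mL cells were incubated for 24 h at 37° C. and 200 rpm. Wells were then read at OD600 on a Varioskan Flash reader.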

Setting [1] is: ATCC 10536 / ATCC 10596, No Zinc.
Where [2] appears, read: ATCC 10536 / ATCC 10596, Zinc (50 μM).

Converted amounts (≈) assume the structure as drawn. Read-outs that look alike come from different tables or passages of the source. Some results are limits rather than exact numbers.

The term MIC denotes the lowest concentration found to suppress growth.

For `CCCCS(=O)(=O)Nc1cccc2ccc(CN(C)C)nc12` [ZDR321, N-(2-((Dimethylamino)methyl)quinolin-8-yl)butane-1-sulfonamide], the minimal inhibitory concentration (MIC) in the assay on E. coli ATCC 10596 (setting [1]) was greater than 256 µg/mL; in the assay on E. coli ATCC 10596 (setting [2]), greater than 256 µg/mL; with S. aureus ATCC 6538 (ATCC6538, No Zinc) it was greater than 256 µg/mL; in the assay with S. aureus ATCC 6538 (ATCC6538, Zinc (50 μM)) it was 128 µg/mL (≈ 398 µM); in the assay with S. uberis ATCC 19436 (ATCC19436, No Zinc), 256 µg/mL (≈ 796 µM); in the assay with S. uberis ATCC 19436 (ATCC19436, Zinc (50 μM)) it was 0.25 µg/mL (≈ 0.778 µM).

As to `CN(C)Cc1ccc2cccc(NS(=O)(=O)c3ccc(Cl)nc3)c2n1` [ZDR322, 6-Chloro-N-(2-((dimethylamino)methyl)quinolin-8-yl)pyridine-3-sulfonamide], the MIC is greater than 256 µg/mL with E. coli ATCC 10596 (setting [1]); greater than 256 µg/mL with E. coli ATCC 10596 (setting [2]); 128 µg/mL (≈ 340 µM) in the assay with S. aureus ATCC 6538 (ATCC6538, No Zinc); greater than 256 µg/mL in the assay on S. aureus ATCC 6538 (ATCC6538, Zinc (50 μM)); greater than 256 µg/mL in the assay on S. uberis ATCC 19436 (ATCC19436, No Zinc); 0.25 µg/mL (≈ 0.663 µM) in the assay with S. uberis ATCC 19436 (ATCC19436, Zinc (50 μM)).

`CN(C)Cc1ccc2cccc(NS(=O)(=O)C3CC3)c2n1` [ZDR323, N-(2-((Dimethylamino)methyl)quinolin-8-yl)cyclopropanesulfonamide]: the minimum inhibitory concentration (MIC) is greater than 256 µg/mL in the assay with E. coli ATCC 10596 (setting [1]); greater than 256 µg/mL in the assay with E. coli ATCC 10596 (setting [2]); greater than 256 µg/mL in the assay with S. aureus ATCC 6538 (ATCC6538, No Zinc); 256 µg/mL (≈ 838 µM) in the assay on S. aureus ATCC 6538 (ATCC6538, Zinc (50 μM)); greater than 256 µg/mL with S. uberis ATCC 19436 (ATCC19436, No Zinc); 1 µg/mL (≈ 3.27 µM) with S. uberis ATCC 19436 (ATCC19436, Zinc (50 μM)).

`CN(C)Cc1ccc2cccc(NS(=O)(=O)c3ccc(C=O)cc3)c2n1` [ZDR324, N-(2-((Dimethylamino)methyl)quinolin-8-yl)-4-formylbenzenesulfonamide]: the MIC in the assay on E. coli ATCC 10596 (setting [1]) is greater than 256 µg/mL; in the assay on E. coli ATCC 10596 (setting [2]), greater than 256 µg/mL; in the assay with S. aureus ATCC 6538 (ATCC6538, No Zinc), 256 µg/mL (≈ 693 µM); with S. aureus ATCC 6538 (ATCC6538, Zinc (50 μM)), 256 µg/mL (≈ 693 µM); with S. uberis ATCC 19436 (ATCC19436, No Zinc), 256 µg/mL (≈ 693 µM); in the assay with S. uberis ATCC 19436 (ATCC19436, Zinc (50 μM)), 1 µg/mL (≈ 2.71 µM).

Regarding `CN(C)Cc1ccc2cccc(NS(=O)(=O)c3ccc(Cl)s3)c2n1` [ZDR326, 5-Chloro-N-(2-((dimethylamino)methyl)quinolin-8-yl)thiophene-2-sulfonamide], the MIC in the assay with E. coli ATCC 10596 (setting [1]) was 256 µg/mL (≈ 670 µM); with E. coli ATCC 10596 (setting [2]), greater than 256 µg/mL; in the assay with S. aureus ATCC 6538 (ATCC6538, No Zinc) it was 32 µg/mL (≈ 83.8 µM); in the assay with S. aureus ATCC 6538 (ATCC6538, Zinc (50 μM)), 128 µg/mL (≈ 335 µM); with S. uberis ATCC 19436 (ATCC19436, No Zinc), 128 µg/mL (≈ 335 µM); with S. uberis ATCC 19436 (ATCC19436, Zinc (50 μM)), 0.125 µg/mL (≈ 0.327 µM).

On to `CC(=O)Nc1cccc(S(=O)(=O)Nc2cccc3ccc(CN(C)C)nc23)c1` [ZDR327, N-(3-(N-(2-((Dimethylamino)methyl)quinolin-8-yl)sulfamoyl)phenyl)acetamide], for which the MIC in the assay on E. coli ATCC 10596 (setting [1]) is greater than 256 µg/mL; with E. coli ATCC 10596 (setting [2]) it was greater than 256 µg/mL; in the assay with S. aureus ATCC 6538 (ATCC6538, No Zinc), greater than 256 µg/mL; in the assay on S. aureus ATCC 6538 (ATCC6538, Zinc (50 μM)) it was greater than 256 µg/mL; in the assay with S. uberis ATCC 19436 (ATCC19436, No Zinc) it was 256 µg/mL (≈ 642 µM); in the assay on S. uberis ATCC 19436 (ATCC19436, Zinc (50 μM)), 8 µg/mL (≈ 20.1 µM).

Consider `CN(C)Cc1ccc2cccc(NS(=O)(=O)c3cccnc3)c2n1` [ZDR328, N-(2-((Dimethylamino)methyl)quinolin-8-yl)pyridine-3-sulfonamide], for which the MIC with E. coli ATCC 10596 (setting [1]) is greater than 256 µg/mL; in the assay with E. coli ATCC 10596 (setting [2]) it was greater than 256 µg/mL; in the assay on S. aureus ATCC 6538 (ATCC6538, No Zinc), greater than 256 µg/mL; in the assay with S. aureus ATCC 6538 (ATCC6538, Zinc (50 μM)), greater than 256 µg/mL; with S. uberis ATCC 19436 (ATCC19436, No Zinc), greater than 256 µg/mL; with S. uberis ATCC 19436 (ATCC19436, Zinc (50 μM)), 1 µg/mL (≈ 2.92 µM).

Take `CN(C)Cc1ccc2cccc(NS(=O)(=O)c3ccc(SC(F)(F)F)cc3)c2n1` [ZDR330, N-(2-((Dimethylamino)methyl)quinolin-8-yl)-4-((trifluoromethyl)thio)benzenesulfonamide]: the MIC in the assay with E. coli ATCC 10596 (setting [1]) was greater than 256 µg/mL; in the assay with E. coli ATCC 10596 (setting [2]) it was greater than 256 µg/mL; in the assay with S. aureus ATCC 6538 (ATCC6538, No Zinc), 32 µg/mL (≈ 72.5 µM); in the assay with S. aureus ATCC 6538 (ATCC6538, Zinc (50 μM)), 32 µg/mL (≈ 72.5 µM); in the assay on S. uberis ATCC 19436 (ATCC19436, No Zinc), 128 µg/mL (≈ 290 µM); with S. uberis ATCC 19436 (ATCC19436, Zinc (50 μM)), 0.125 µg/mL (≈ 0.283 µM).

On to `CN(C)Cc1ccc2cccc(NS(=O)(=O)c3cccc(C(N)=O)c3)c2n1` [ZDR331, 3-(N-(2-((Dimethylamino)methyl)quinolin-8-yl)sulfamoyl)benzamide], for which the MIC in the assay on E. coli ATCC 10596 (setting [1]) is greater than 256 µg/mL; in the assay with E. coli ATCC 10596 (setting [2]), greater than 256 µg/mL; in the assay with S. aureus ATCC 6538 (ATCC6538, No Zinc) it was greater than 256 µg/mL; in the assay on S. aureus ATCC 6538 (ATCC6538, Zinc (50 μM)) it was greater than 256 µg/mL; in the assay on S. uberis ATCC 19436 (ATCC19436, No Zinc) it was greater than 256 µg/mL; in the assay on S. uberis ATCC 19436 (ATCC19436, Zinc (50 μM)) it was 16 µg/mL (≈ 41.6 µM).

In the case of `COC(=O)Nc1ccc(S(=O)(=O)Nc2cccc3ccc(CN(C)C)nc23)cc1` [ZDR332, Methyl (4-(N-(2-((dimethylamino)methyl)quinolin-8-yl)sulfamoyl)phenyl)carbamate], the MIC in the assay with E. coli ATCC 10596 (setting [1]) is greater than 256 µg/mL; in the assay on E. coli ATCC 10596 (setting [2]), greater than 256 µg/mL; with S. aureus ATCC 6538 (ATCC6538, No Zinc) it was greater than 256 µg/mL; in the assay with S. aureus ATCC 6538 (ATCC6538, Zinc (50 μM)) it was greater than 256 µg/mL; with S. uberis ATCC 19436 (ATCC19436, No Zinc) it was 256 µg/mL (≈ 618 µM); with S. uberis ATCC 19436 (ATCC19436, Zinc (50 μM)) it was 2 µg/mL (≈ 4.83 µM).

Consider `CN(C)Cc1ccc2cccc(NS(=O)(=O)c3ccc(NC(=O)OC(C)(C)C)cc3)c2n1` [ZDR333, tert-Butyl (4-(N-(2-((dimethylamino)methyl)quinolin-8-yl)sulfamoyl)phenyl)carbamate], for which the MIC in the assay on E. coli ATCC 10596 (setting [1]) is greater than 256 µg/mL; in the assay on E. coli ATCC 10596 (setting [2]), greater than 256 µg/mL; in the assay on S. aureus ATCC 6538 (ATCC6538, No Zinc), 128 µg/mL (≈ 280 µM); in the assay with S. aureus ATCC 6538 (ATCC6538, Zinc (50 μM)), 128 µg/mL (≈ 280 µM); with S. uberis ATCC 19436 (ATCC19436, No Zinc), 64 µg/mL (≈ 140 µM); with S. uberis ATCC 19436 (ATCC19436, Zinc (50 μM)), 0.125 µg/mL (≈ 0.274 µM).
